# Experimental data: EP1683523A1, “2-Phenylquinoxalines as inhibitors for MPP1” (MAX-PLANCK-GESELLSCHAFT ZUR FÖRDERUNG DER WISSENSCHAFTEN …, priority 2005, dated 2006)
# Tests used:
# [1] = molecular target: T1, His-tagged human MPP1 construct (Aa 1-533) (Homo sapiens, UniProt Q96Q89); test: Malachite-green based in vitro microtubule-stimulated ATPase assay (potency study); type: biochemical; conditions: microtubule-stimulated ATPase activity, DMSO as solvent control, Fig. 1
# T1 construct: a His-tagged human MPP1 construct (Aa 1-533); His
# T1 sequence (Q96Q89 1-533): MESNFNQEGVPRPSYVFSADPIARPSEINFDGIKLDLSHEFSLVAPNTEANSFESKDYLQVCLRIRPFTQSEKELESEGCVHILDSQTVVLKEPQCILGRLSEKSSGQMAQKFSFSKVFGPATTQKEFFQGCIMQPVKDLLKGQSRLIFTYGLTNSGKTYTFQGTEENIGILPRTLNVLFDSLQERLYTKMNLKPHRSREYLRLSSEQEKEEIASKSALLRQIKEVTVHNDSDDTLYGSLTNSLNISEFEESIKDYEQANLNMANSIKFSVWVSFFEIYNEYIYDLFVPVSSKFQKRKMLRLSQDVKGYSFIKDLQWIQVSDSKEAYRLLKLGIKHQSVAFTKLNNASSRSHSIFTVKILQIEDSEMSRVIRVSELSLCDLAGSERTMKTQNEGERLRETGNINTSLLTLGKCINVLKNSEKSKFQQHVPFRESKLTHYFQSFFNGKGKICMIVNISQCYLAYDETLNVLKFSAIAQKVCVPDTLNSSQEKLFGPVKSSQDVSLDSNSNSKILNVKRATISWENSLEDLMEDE
# Protocol: The 2-phenylquinoxaline derivatives were measured be means of a malachite-green based (Itaya K. and UI, M. (1966), A new micromethod for the colorimetric determination of inorganic phosphate; Clin. Chim. Acta, 14: 362 - 366) in vitro ATPase assay. For this assay the microtubule-stimulated ATPase activity of a His-tagged human MPP1 construct (Aa 1-533) in the presence of small molecules or DMSO as a solvent control were measured. These studies are done in 384-well plates in which individual compounds of a large compound collection are transferred into each well using a liquid handling robot.
# The potency of 5-chloro-2-(3,4-dichlorophenyl)-7-(trifluoromethyl)quinoxaline as a representative example of the 2-phenylquinoxaline derivatives of general formula (I) was determined by measuring MPP1's microtubule-stimulated ATPase activity in vitro in the presence of 5-chloro-2-(3,4-dichlorophenyl)-7-(trifluoromethyl)-quinoxaline or DMSO as a solvent control. For these studies a malachite green assay which allows the quantification of free phosphate (Pi) in solution was used.
# Eg5 = molecular target: T2, Eg5 (Homo sapiens, UniProt P52732); test: Malachite-green in vitro microtubule-stimulated ATPase assay (specificity); type: biochemical; conditions: Fig. 2
# T2 sequence (P52732 1-1056): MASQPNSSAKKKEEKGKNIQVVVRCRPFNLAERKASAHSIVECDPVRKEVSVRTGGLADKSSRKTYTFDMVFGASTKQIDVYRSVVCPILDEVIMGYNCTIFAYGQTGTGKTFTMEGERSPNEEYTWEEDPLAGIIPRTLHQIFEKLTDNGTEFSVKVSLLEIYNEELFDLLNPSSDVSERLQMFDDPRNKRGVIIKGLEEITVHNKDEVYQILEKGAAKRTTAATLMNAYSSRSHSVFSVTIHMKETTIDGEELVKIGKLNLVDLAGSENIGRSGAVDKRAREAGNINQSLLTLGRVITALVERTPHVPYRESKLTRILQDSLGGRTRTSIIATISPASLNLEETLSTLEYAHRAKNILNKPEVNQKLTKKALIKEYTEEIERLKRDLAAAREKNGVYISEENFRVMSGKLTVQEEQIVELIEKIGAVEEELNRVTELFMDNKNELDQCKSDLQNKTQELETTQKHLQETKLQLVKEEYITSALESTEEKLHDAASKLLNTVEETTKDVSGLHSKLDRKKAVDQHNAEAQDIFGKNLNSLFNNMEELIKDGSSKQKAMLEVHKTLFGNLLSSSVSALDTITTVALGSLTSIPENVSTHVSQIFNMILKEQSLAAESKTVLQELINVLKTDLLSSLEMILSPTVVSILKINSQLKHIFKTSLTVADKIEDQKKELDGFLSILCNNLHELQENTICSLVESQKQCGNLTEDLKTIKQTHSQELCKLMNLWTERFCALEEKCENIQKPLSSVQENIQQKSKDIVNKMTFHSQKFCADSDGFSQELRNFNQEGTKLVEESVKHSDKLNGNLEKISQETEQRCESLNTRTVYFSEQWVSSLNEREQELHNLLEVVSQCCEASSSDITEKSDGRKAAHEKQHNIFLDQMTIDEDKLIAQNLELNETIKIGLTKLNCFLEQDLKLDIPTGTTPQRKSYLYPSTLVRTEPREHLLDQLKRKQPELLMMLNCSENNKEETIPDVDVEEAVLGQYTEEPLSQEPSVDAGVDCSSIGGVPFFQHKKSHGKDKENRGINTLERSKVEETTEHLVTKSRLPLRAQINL
# Protocol: (§1) The specificity of 5-chloro-2-(3,4-dichlorophenyl)-7-(trifluoromethyl)quinoxaline was determined by measuring its effect on the microtubule-stimulated in vitro ATPase activities of the kinesins Eg5, Kif4, Mklp1, and Mklp2.
# Kif4 = molecular target: T3, Kif4 (Homo sapiens, UniProt O95239); test: as above; type: biochemical; conditions: Fig. 2
# T3 sequence (O95239 1-1232): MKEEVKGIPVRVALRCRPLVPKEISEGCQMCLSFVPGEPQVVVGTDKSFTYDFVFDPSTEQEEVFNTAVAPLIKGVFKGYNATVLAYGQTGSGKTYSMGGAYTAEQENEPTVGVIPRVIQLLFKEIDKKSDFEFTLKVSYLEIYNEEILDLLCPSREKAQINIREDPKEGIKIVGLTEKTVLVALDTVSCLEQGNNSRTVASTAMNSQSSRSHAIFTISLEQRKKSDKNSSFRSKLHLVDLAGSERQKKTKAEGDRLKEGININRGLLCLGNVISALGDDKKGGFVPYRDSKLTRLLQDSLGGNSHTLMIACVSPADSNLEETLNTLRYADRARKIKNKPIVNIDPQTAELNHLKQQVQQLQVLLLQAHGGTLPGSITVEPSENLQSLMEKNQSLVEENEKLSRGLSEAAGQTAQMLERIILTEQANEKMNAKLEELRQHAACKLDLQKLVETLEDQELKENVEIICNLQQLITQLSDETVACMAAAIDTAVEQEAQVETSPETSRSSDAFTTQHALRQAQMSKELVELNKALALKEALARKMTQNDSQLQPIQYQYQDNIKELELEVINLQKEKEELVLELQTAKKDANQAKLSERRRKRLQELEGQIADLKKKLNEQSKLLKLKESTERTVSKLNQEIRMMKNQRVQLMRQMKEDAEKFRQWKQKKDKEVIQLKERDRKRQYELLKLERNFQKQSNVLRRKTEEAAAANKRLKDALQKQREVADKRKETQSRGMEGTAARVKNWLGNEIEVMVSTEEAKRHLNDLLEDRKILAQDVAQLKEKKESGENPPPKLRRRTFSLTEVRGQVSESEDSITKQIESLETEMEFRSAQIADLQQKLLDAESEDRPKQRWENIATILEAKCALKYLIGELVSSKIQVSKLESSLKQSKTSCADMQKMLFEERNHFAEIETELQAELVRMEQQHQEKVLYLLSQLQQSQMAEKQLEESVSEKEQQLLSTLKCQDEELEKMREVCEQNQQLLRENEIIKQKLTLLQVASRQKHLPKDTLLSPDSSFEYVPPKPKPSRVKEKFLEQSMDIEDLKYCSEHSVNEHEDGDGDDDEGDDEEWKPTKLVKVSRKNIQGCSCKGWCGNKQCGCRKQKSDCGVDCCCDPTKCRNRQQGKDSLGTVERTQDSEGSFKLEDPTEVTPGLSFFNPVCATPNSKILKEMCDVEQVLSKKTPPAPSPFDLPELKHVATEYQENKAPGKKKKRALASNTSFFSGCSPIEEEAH
# Protocol: as §1
# Mklp1 = molecular target: T4, Mklp1 (Homo sapiens, UniProt Q02241); test: as above; type: biochemical; conditions: Fig. 2
# T4 sequence (Q02241 1-960): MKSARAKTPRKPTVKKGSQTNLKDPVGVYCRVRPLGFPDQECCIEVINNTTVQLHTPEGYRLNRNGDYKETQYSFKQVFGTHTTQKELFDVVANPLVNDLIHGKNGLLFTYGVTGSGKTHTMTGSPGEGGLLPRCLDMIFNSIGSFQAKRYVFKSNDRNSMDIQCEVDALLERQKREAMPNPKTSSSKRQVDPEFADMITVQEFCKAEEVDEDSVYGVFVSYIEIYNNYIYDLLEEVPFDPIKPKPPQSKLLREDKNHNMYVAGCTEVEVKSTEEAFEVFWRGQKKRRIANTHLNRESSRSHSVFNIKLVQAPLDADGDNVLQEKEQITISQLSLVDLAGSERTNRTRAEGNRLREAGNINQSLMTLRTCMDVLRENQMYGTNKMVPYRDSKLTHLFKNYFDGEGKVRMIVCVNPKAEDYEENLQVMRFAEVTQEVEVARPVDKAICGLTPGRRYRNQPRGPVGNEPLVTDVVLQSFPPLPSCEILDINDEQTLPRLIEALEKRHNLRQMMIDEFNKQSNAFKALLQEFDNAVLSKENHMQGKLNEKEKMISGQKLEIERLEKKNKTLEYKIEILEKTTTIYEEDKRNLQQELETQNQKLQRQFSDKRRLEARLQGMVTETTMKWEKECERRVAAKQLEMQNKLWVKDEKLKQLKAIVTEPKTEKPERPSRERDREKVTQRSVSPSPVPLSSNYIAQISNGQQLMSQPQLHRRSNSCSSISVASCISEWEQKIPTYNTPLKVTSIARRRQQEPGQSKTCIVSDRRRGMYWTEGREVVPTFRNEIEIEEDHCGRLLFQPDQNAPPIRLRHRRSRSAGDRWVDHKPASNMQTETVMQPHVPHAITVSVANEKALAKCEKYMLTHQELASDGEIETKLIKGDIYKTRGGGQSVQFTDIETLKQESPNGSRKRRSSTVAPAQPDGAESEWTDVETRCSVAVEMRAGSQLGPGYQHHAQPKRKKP
# Protocol: as §1
# Mklp2 = molecular target: T5, Mklp2 (Homo sapiens, UniProt O95235); test: as above; type: biochemical; conditions: Fig. 2
# T5 sequence (O95235 1-890): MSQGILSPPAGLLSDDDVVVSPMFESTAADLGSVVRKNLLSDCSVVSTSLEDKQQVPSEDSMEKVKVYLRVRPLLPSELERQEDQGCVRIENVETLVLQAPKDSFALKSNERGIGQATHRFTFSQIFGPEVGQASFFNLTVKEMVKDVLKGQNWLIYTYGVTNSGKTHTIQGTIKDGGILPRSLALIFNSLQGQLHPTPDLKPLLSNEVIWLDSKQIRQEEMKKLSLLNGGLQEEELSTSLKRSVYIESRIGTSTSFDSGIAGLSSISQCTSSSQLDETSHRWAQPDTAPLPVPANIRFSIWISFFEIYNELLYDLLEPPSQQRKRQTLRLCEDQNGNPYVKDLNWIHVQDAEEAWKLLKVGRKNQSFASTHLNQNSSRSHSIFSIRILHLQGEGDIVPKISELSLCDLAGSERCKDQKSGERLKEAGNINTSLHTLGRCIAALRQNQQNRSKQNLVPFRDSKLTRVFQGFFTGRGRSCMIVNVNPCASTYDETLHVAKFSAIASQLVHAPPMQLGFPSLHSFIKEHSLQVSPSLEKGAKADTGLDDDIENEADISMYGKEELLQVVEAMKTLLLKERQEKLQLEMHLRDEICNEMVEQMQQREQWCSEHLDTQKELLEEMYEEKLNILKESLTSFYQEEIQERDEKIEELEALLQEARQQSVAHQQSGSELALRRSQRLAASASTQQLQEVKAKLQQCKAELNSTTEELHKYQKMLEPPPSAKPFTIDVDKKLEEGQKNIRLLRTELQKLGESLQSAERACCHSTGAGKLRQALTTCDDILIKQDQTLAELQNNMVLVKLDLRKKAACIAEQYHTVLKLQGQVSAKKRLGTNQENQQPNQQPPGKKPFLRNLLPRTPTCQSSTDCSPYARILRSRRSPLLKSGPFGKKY
# Protocol: as §1
# [2] = tested on: BSC-1 (African green monkey) cells; test: Cellular phenotype: count of binucleated cells; type: cell-based; conditions: Chlorocebus sabaeus; synchronized BSC-1 cells, released from thymidine-block for three hours, treated for 18 hours; at least 200 cells counted per concentration; read-out: EC50, induction of a binucleate phenotype in BSC-1
# Protocol: Concerning the study the function of MPP1 in living cells, it was tested whether 5-chloro-2-(3,4-dichlorophenyl)-7-(trifluoromethyl)quinoxaline induces a phenotype similar to the one obtained by RNAi-mediated depletion of MPP1. For these studies we treated synchronized BSC-1 (African green monkey) cells with 5-chloro-2-(3,4-dichlorophenyl)-7-(trifluoromethyl)quinoxaline or DMSO as a solvent control.
# BSC-1 cells were released from thymidine-block for three hours and then treated with 50µM or the indicated concentrations of 5-chloro-2-(3,4-dichlorophenyl)-7-(trifluoromethyl)quinoxaline for 18 hours. Treated cells were fixed with formaledehyde-containing buffer and the DNA and microtubule cytoskeleton were visualized with Hoechst and FITC-labled anti-tubulin antibody, respectively. The number of binucleated cells was determined by manual counting of at least 200 cells per concentration.
# Hela S3 cells = test: Cellular phenotype: binucleate phenotype; type: cell-based; conditions: Fig. 3
# [3] = tested on: cellular processes known to be independent of MPP1 function; test: Specificity in vivo: effect on cellular processes independent of MPP1; type: cell-based; conditions: golgi/lysosome localization, actin/microtubule cytoskeleton in interphase, protein synthesis, S to M-phase cell cycle progression, wound healing
# Source text: For the specificity in vivo studies, the effect of 5-chloro-2-(3,4-dichlorophenyl)-7-(trifluoromethyl)quinoxaline on cellular processes known to be independent of MPP1 function, e.g. golgi/lysosome localization, actin/microtubule cytoskeleton in interphase, protein synthesis, S to M-phase cell cycle progression, and wound healing was investigated.
smiles,measurement,setting,value
"FC(F)(F)c1cc(Cl)c2ncc(-c3ccc(Cl)c(Cl)c3)nc2c1 [5-chloro-2-(3,4-dichlorophenyl)-7-(trifluoromethyl)quinoxaline]",IC50,[1],~40 µM
same,effect on the in vitro ATPase activity of Eg5,Eg5,no significant effect
same,effect on the in vitro ATPase activity of Kif4,Kif4,no significant effect
same,effect on the in vitro ATPase activity of Mklp1,Mklp1,no significant effect
same,effect on the in vitro ATPase activity of Mklp2,Mklp2,no significant effect
same,EC50,[2],~50 µM
same,binucleate phenotype in Hela S3 cells,Hela S3 cells,induces a binucleate phenotype
same,effect on the tested cellular processes,[3],no observable effect
